Values joined by “and” are separate entries in the source; they are usually repeats but may differ in a detail not shown here. Identical values can stand only once. Values belong to the compound of their own block, whether it stands above or below them.
Columns and labels:
[1] = previous studies; cited from earlier work
[2] = Multi-dimensional parametric testing of doxycycline stability in aqueous solution; format: physicochemical; settings: for doxycycline stability t = 0 / doxycycline stability 2 wks / doxycycline stability 4 wks: 250 μg/mL; for degradation: 2 weeks
Source text: (§1) Standard methods known in the art are used for monitoring the degradation of tetracycline into its epimers or degradation products. For example, one method for monitoring tetracycline degradation is an analytical technique using chromatography, e.g. high pressure liquid chromatography (HPLC), to separate the various degradants, e.g. epimers and other degradants, and a sensitive detector to identify and quantify the concentrations of the drug and degradants over time.
A multi-dimensional parametric test on doxycycline stability was conducted to study the effect of pH, storage temperature and the presence of various chemical agents.

[3] = Combinatorial effect of antioxidants and tonicity adjustment agents in doxycycline stability; format: physicochemical; settings: for doxycycline stability 5 Wks / doxycycline stability 8 Wks / doxycycline stability 12 Wks / doxycycline stability 2 Wks / doxycycline stability Init.: HPMC
Source text: as §1

[4] = format: physicochemical
Description: The rate of doxycycline epimerization increased with temperature and time (see Table 7). […] Long-term storage (more than 18 months) should therefore be at refrigeration temperatures (2-8° C.) to minimize conversion of doxycycline to its epimers.
After 12 months of storage at 5° C., about 0.0014% w/w of the doxycycline in solution was lost to degradation. That is, original doxycyline concentration was 0.025% w/w and concentration after 12 months was 0.0236% w/w, corresponding to 94.4% Label Claim (LC).
The epimerization of doxycycline into 4-epidoxycycline is reversible, and the rate of 4-epidoxycycline formation is related to the kinetic equilibrium between the two compounds. Therefore, one method for specifically reducing the rate of doxycycline epimerization into 4-epidoxycycline is to fortify the formulation with 4-epidoxycycline.

[5] = Disodium Edetate, pH 5.3, 5° C.
[6] = Disodium Edetate, pH 5.3, 25° C.
[7] = Sodium Metabisulfite, pH 5.3, 5° C.
[8] = Sodium Metabisulfite, pH 5.3, 25° C.
[9] = Sodium Thiosulfate, pH 5.3, 5° C.
[10] = Sodium Thiosulfate, pH 5.3, 25° C.
[11] = Edetate Disodium 0.1%, Sodium Metabisulfite 0.1%, Sodium Thiosulfate 0.2%, Glycerin (167 mOsm/kg), 5° C.
[12] = Edetate Disodium 0.1%, Sodium Metabisulfite 0.1%, Sodium Thiosulfate 0.2%, Glycerin (167 mOsm/kg), 25° C.
[13] = Edetate Disodium 0.2%, Sodium Metabisulfite 0.2%, Sodium Thiosulfate 0.3%, Glycerin (287 mOsm/kg), 5° C.
[14] = Edetate Disodium 0.2%, Sodium Metabisulfite 0.2%, Sodium Thiosulfate 0.3%, Glycerin (287 mOsm/kg), 25° C.
[15] = Edetate Disodium 0.2%, Sodium Metabisulfite 0.2%, Sodium Thiosulfate 0.3%, Glycerin (287 mOsm/kg), 40° C.
[16] = Edetate Disodium 0.2%, Sodium Metabisulfite 0.2%, Sodium Thiosulfate 0.3%, NaCl (330 mOsm/kg), 5° C.

SMILES: C[C@H]1c2cccc(O)c2C(O)=C2C(=O)[C@]3(O)C(O)=C(C(N)=O)C(=O)[C@H](N(C)C)[C@@H]3[C@@H](O)[C@@H]21 [4-epidoxycycline]
function as an antibiotic [1]: does not function as an antibiotic

doxycycline stability t = 0 ([2]; Disodium Edetate, pH 5.3): 100%
doxycycline stability 2 wks [2, 5]: 99%
doxycycline stability 4 wks [2, 5]: 96%
doxycycline stability 2 wks [2, 6]: 97%
doxycycline stability 4 wks [2, 6]: 88%
doxycycline stability 2 wks ([2]; Disodium Edetate, pH 5.3, 40° C.): 24%
doxycycline stability t = 0 ([2]; Disodium Edetate, pH 7): 100%
doxycycline stability 2 wks ([2]; Disodium Edetate, pH 7, 5° C.): 96%
doxycycline stability 2 wks ([2]; Disodium Edetate, pH 7, 25° C.): 55%
doxycycline stability 2 wks ([2]; Disodium Edetate, pH 7, 40° C.): 4%
doxycycline stability t = 0 ([2]; None (no antioxidant/chelating agent), pH 5.3): 100%
doxycycline stability 2 wks ([2]; None, pH 5.3, 5° C.): 96%
doxycycline stability 4 wks ([2]; None, pH 5.3, 5° C.): 93%
doxycycline stability 2 wks ([2]; None, pH 5.3, 25° C.): 73%
doxycycline stability 4 wks ([2]; None, pH 5.3, 25° C.): 59%
doxycycline stability 2 wks ([2]; None, pH 5.3, 40° C.): 19%
doxycycline stability t = 0 ([2]; None, pH 7): 100%
doxycycline stability 2 wks ([2]; None, pH 7, 5° C.): 94%
doxycycline stability 2 wks ([2]; None, pH 7, 25° C.): 49%
doxycycline stability 2 wks ([2]; None, pH 7, 40° C.): 11%
doxycycline stability t = 0 ([2]; Sodium Bisulfite, pH 5.3): 100%
doxycycline stability 2 wks ([2]; Sodium Bisulfite, pH 5.3, 5° C.): 88%
doxycycline stability 2 wks ([2]; Sodium Bisulfite, pH 5.3, 25° C.): 72%
doxycycline stability 2 wks ([2]; Sodium Bisulfite, pH 5.3, 40° C.): 57%
doxycycline stability t = 0 ([2]; Sodium Bisulfite, pH 7): 100%
doxycycline stability 2 wks ([2]; Sodium Bisulfite, pH 7, 5° C.): 91%
doxycycline stability 2 wks ([2]; Sodium Bisulfite, pH 7, 25° C.): 83%
doxycycline stability 2 wks ([2]; Sodium Bisulfite, pH 7, 40° C.): 48%
doxycycline stability t = 0 ([2]; Sodium Metabisulfite, pH 5.3): 100%
doxycycline stability 2 wks [2, 7]: 99%
doxycycline stability 4 wks [2, 7]: 97%
doxycycline stability 2 wks [2, 8]: 92%
doxycycline stability 4 wks [2, 8]: 90%
doxycycline stability 2 wks ([2]; Sodium Metabisulfite, pH 5.3, 40° C.): 59%
doxycycline stability t = 0 ([2]; Sodium Metabisulfite, pH 7): 100%
doxycycline stability 2 wks ([2]; Sodium Metabisulfite, pH 7, 5° C.): 97%
doxycycline stability 2 wks ([2]; Sodium Metabisulfite, pH 7, 25° C.): 86%
doxycycline stability 2 wks ([2]; Sodium Metabisulfite, pH 7, 40° C.): 51%
doxycycline stability t = 0 ([2]; Sodium Thiosulfate, pH 5.3): 100%
doxycycline stability 2 wks [2, 9]: 99%
doxycycline stability 4 wks [2, 9]: 99%
doxycycline stability 2 wks [2, 10]: 95%
doxycycline stability 4 wks [2, 10]: 93%
doxycycline stability 2 wks ([2]; Sodium Thiosulfate, pH 5.3, 40° C.): 67%
doxycycline stability t = 0 ([2]; Sodium Thiosulfate, pH 7): 100%
doxycycline stability 2 wks ([2]; Sodium Thiosulfate, pH 7, 5° C.): 96%
doxycycline stability 2 wks ([2]; Sodium Thiosulfate, pH 7, 25° C.): 91%
doxycycline stability 2 wks ([2]; Sodium Thiosulfate, pH 7, 40° C.): 7%
doxycycline stability t = 0 ([2]; Thiourea, pH 5.3): 100%
doxycycline stability 2 wks ([2]; Thiourea, pH 5.3, 5° C.): 98%
doxycycline stability 2 wks ([2]; Thiourea, pH 5.3, 25° C.): 80%
doxycycline stability 2 wks ([2]; Thiourea, pH 5.3, 40° C.): 22%
doxycycline stability t = 0 ([2]; Thiourea, pH 7): 100%
doxycycline stability 2 wks ([2]; Thiourea, pH 7, 5° C.): 98%
doxycycline stability 2 wks ([2]; Thiourea, pH 7, 25° C.): 74%
doxycycline stability 2 wks ([2]; Thiourea, pH 7, 40° C.): 9%
degradation ([2]; aqueous solution, neutral pH, 5° C., no additive): 6%
degradation ([2]; aqueous solution, neutral pH, room temperature (RT), no additive): 51%
degradation ([2]; aqueous solution, neutral pH, room temperature (RT), no additive, listed as doxcycline): about 51%
degradation ([2]; pH 5.3, RT, addition of edetate disodium): 3%
degradation ([2]; pH 5.3, RT, addition of sodium bisulfate): 28%
degradation ([2]; pH 5.3, RT, addition of sodium metabisulfite): 8%
degradation ([2]; pH 5.3, RT, addition of sodium thiosulfate): 5%
degradation ([2]; pH 5.3, RT, addition of thiourea): 20%
degradation ([2]; pH 5.3, RT, no additive): 28% and 27%
degradation ([3]; 0.025% w/w doxycycline, edetate, metabisulfite, thiosulfate, phosphate-citrate buffer, glycerin, pH 5.2-5.8, 12 weeks at 5° C.): no detectable degradation
doxycycline stability 5 Wks [3, 11]: 102.8%
doxycycline stability 8 Wks [3, 11]: 100.6%
doxycycline stability 12 Wks [3, 11]: 99.4%
doxycycline stability 5 Wks [3, 12]: 97.0%
doxycycline stability 8 Wks [3, 12]: 90.4%
doxycycline stability 12 Wks [3, 12]: 85.1%
doxycycline stability 5 Wks ([3]; Edetate Disodium 0.1%, Sodium Metabisulfite 0.1%, Sodium Thiosulfate 0.2%, Glycerin (167 mOsm/kg), 40° C.): 58.2%
doxycycline stability 5 Wks ([3]; Edetate Disodium 0.1%, Sodium Metabisulfite 0.1%, Sodium Thiosulfate 0.2%, NaCl (325 mOsm/kg), 5° C.): 103.6%
doxycycline stability 5 Wks ([3]; Edetate Disodium 0.1%, Sodium Metabisulfite 0.1%, Sodium Thiosulfate 0.2%, NaCl (325 mOsm/kg), 25° C.): 96.6%
doxycycline stability 5 Wks ([3]; Edetate Disodium 0.1%, Sodium Metabisulfite 0.1%, Sodium Thiosulfate 0.2%, NaCl (325 mOsm/kg), 40° C.): 55.8%
doxycycline stability 5 Wks ([3]; Edetate Disodium 0.1%, Sodium Metabisulfite 0.1%, Glycerin (138 mOsm/kg), 5° C.): 94.6%
doxycycline stability 5 Wks ([3]; Edetate Disodium 0.1%, Sodium Metabisulfite 0.1%, Glycerin (138 mOsm/kg), 25° C.): 84.9%
doxycycline stability 5 Wks ([3]; Edetate Disodium 0.1%, Sodium Metabisulfite 0.1%, Glycerin (138 mOsm/kg), 40° C.): 47.1%
doxycycline stability 5 Wks ([3]; Edetate Disodium 0.1%, Sodium Metabisulfite 0.1%, NaCl (305 mOsm/kg), 5° C.): 90.6%
doxycycline stability 5 Wks ([3]; Edetate Disodium 0.1%, Sodium Metabisulfite 0.1%, NaCl (305 mOsm/kg), 25° C.): 81.8%
doxycycline stability 5 Wks ([3]; Edetate Disodium 0.1%, Sodium Metabisulfite 0.1%, NaCl (305 mOsm/kg), 40° C.): 46.5%
doxycycline stability 2 Wks [3, 13]: 103.0%
doxycycline stability 5 Wks [3, 13]: 101.2%
doxycycline stability 8 Wks [3, 13]: 100.6%
doxycycline stability 12 Wks [3, 13]: 100.4%
doxycycline stability Init. [3, 13]: 103.2%
doxycycline stability 2 Wks [3, 14]: 101.0%
doxycycline stability 5 Wks [3, 14]: 93.3%
doxycycline stability 8 Wks [3, 14]: 85.2%
doxycycline stability 12 Wks [3, 14]: 84.8%
doxycycline stability 2 Wks [3, 15]: 80.3%
doxycycline stability 5 Wks [3, 15]: 55.1%
doxycycline stability 2 Wks [3, 16]: 103.0%
doxycycline stability Init. [3, 16]: 103.4%
doxycycline stability 2 Wks ([3]; Edetate Disodium 0.2%, Sodium Metabisulfite 0.2%, Sodium Thiosulfate 0.3%, NaCl (330 mOsm/kg), 25° C.): 100.6%
doxycycline stability 2 Wks ([3]; Edetate Disodium 0.2%, Sodium Metabisulfite 0.2%, Sodium Thiosulfate 0.3%, NaCl (330 mOsm/kg), 40° C.): 79.9%
share of degradation by epimerization into 4-epidoxycycline [4]: over half of the degradation
doxycycline in solution lost to degradation ([4]; 12 months, 0.025 % w/w): about 0.0014 % w/w
SMILES: C[C@H]1c2cccc(O)c2C(=O)C2=C(O)[C@]3(O)C(=O)C(C(N)=O)=C(O)[C@@H](N(C)C)[C@@H]3[C@@H](O)[C@@H]21 [doxycycline]
effect of fortifying with 4-epidoxycycline on degradation [4]: reduced degradation of doxycycline during storage
route of doxycycline degradation ([4]; 12 months, 0.025 % w/w): practically all of the degradation of doxycycline at 5 °C was through conversion into 4-epidoxycycline

Reference: patent publication US20120028929A1, “TETRACYCLINE STABILIZING FORMULATIONS” (ALACRITY BIOSCIENCE, INC., priority 2008, published 2012)
